Reference: ChEMBL document CHEMBL5053553, “Structure-activity relationship around PI-2620 highlights the importance of the nitrogen atom position in the tricyclic core” (Bioorg Med Chem, 2021)
pIC50: −log10 of the molar value.

Legend:
[1] = molecular target: T1, Amine oxidase [flavin-containing] A (Mus musculus, UniProt Q64133); experiment: Displacement of [18F]-FEH from MAO-A in mouse brain homogenate incubated for 60 mins by imaging analysis; format: tissue-based
T1 sequence (Q64133 whole entry): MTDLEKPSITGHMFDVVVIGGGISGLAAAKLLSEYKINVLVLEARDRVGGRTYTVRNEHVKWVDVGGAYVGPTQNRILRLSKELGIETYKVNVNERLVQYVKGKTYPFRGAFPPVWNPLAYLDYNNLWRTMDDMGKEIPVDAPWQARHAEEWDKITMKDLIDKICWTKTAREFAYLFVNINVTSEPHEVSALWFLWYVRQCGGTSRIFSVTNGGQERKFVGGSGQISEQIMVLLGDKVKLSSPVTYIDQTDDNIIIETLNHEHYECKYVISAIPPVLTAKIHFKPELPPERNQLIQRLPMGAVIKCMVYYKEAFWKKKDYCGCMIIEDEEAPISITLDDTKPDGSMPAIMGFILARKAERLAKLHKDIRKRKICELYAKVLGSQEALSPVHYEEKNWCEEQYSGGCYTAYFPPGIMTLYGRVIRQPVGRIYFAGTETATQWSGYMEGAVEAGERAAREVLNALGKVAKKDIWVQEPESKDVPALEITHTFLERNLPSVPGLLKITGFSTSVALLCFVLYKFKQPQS

[2] = molecular target: Microtubule-associated protein tau (Homo sapiens, UniProt P10636); experiment: Displacement of [3H]PI-2620 from Tau in human brain homogenate incubated for 60 mins by radioligand binding assay; format: tissue-based
Chain of Microtubule-associated protein tau (P10636 whole entry): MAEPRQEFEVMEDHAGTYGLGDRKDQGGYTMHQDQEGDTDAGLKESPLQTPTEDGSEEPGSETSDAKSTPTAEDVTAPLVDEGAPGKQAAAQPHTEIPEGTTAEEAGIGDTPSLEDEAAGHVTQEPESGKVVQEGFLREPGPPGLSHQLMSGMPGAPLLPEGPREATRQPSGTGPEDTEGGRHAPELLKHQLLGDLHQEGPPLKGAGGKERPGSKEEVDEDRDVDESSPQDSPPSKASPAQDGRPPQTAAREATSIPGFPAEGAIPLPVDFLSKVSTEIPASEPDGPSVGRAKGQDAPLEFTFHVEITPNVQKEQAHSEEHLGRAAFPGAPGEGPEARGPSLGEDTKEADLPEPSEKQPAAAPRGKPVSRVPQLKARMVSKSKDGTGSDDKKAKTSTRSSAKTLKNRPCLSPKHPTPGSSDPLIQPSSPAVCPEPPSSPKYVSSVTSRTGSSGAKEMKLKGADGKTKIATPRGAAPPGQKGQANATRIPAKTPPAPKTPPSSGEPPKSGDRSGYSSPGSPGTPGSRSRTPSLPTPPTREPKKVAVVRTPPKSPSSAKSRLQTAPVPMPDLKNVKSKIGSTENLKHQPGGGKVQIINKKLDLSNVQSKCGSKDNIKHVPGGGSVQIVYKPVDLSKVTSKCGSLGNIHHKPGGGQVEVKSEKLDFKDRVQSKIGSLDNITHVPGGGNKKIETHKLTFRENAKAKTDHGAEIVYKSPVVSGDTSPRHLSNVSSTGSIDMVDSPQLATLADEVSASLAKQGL

Compound | pIC50 [1] | pIC50 [2]
Fc1cc(-c2cc3[nH]c4ccncc4c3cn2)ccn1 | < 6.00 | 7.09
Fc1cc(-c2ccc3c(n2)[nH]c2cccnc23)ccn1 | – | 6.59
Fc1cc(-c2ccc3c(n2)[nH]c2ncccc23)ccn1 | – | 6.51
Fc1ncccc1-c1ccc2c(n1)[nH]c1ccncc12 | < 6.00 | 7.81
Fc1ncccc1-c1cnc2c(c1)[nH]c1ccncc12 | < 6.00 | 6.46
Fc1ncccc1-c1ccc2c(c1)[nH]c1ccncc12 | 8.11 | 8.46
Fc1ncccc1-c1ccc2c(n1)[nH]c1cnccc12 | – | 7.15
Fc1cc(-c2ccc3c(c2)[nH]c2ccncc23)ccn1 | – | 8.51
Fc1cc(-c2ccc3c(n2)[nH]c2cnccc23)ccn1 | – | 7.44
Fc1cc(-c2ccc3c(n2)[nH]c2ccncc23)ccn1 | < 6.00 | 8.31
Fc1cc(-c2cnc3c(c2)[nH]c2ccncc23)ccn1 | < 6.00 | 6.94
Fc1cc(-c2nc3[nH]c4ccncc4c3s2)ccn1 | < 6.00 | 7.74
Fc1ncccc1-c1ccc2c(n1)[nH]c1ncccc12 | – | < 6.00
Fc1ncccc1-c1cc2[nH]c3ccncc3c2cn1 | < 6.00 | 6.14
Fc1ncccc1-c1ccc2c(n1)[nH]c1cccnc12 | – | 6.25
